Measured values published in US6613761B1, “Benzoxazepine compounds, their production and use” (Takeda Chemical Industries, Ltd., priority 1995, dated 2003).
Counter-ions that a name gives are not always drawn.

What was measured:
[1] = biological target: T1, squalene synthetase (Homo sapiens, UniProt P37268); assay: Squalene synthetase inhibitory activity (human-derived enzyme prepared from HepG2 cells); type: biochemical; conditions: [1-3H] farnesyl pyrophosphate, 37° C., 45 minutes, read-out: Inhibitory Activity (IC50, 10^−9 M)
T1 construct: This suspension was used as the enzyme solution; endogenous in cells; host or cells: HepG2 human hepatic carcinoma cells; membrane fraction (105000×g sediment) of the sonicate
T1 sequence (P37268 1-417): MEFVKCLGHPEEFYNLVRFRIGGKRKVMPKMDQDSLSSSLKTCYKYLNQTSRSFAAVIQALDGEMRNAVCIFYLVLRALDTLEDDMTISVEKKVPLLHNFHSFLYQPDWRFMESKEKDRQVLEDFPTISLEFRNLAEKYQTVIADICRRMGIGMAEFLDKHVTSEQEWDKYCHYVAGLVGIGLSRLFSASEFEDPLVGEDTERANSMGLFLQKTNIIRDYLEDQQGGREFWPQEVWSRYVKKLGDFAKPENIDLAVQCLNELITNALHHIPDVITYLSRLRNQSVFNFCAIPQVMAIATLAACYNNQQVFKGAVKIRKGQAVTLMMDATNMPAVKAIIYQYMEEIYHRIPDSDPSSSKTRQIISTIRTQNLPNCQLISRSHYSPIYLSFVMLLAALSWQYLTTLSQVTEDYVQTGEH
Method: The squalene synthetase inhibitory activity was assayed as follows with the enzyme solutions prepared in accordance with the method described below.
More specifically, an enzyme solution (protein content 0.8 μg) prepared in accordance with the method described below was added to a solution (total volume 50 μl)) containing 5 μM [1-^3H] farnesyl pyrophosphate (specific activity 25 μCi/mole), 1 mM NADPH (nicotinamide adenine dinucleotide phosphate of reduced type), 5 mM MgCl2, 6 mM glutathione, a 100 mM buffer solution of potassium phosphate (pH 7.4) and a test drug (used as an aqueous solution or a DMSO solution), then the reaction was allowed to proceed at 37° C. for 45 minutes. To the reaction mixture was added 150 μl of a mixture of chloroform and methanol (1:2) to suspend the reaction, followed by adding 50 Al of chloroform and 50 μl of a 3N solution of sodium hydroxide. 50 μl of the chloroform layer (lower layer) containing the reaction mixture having squalene as the principal component and 3 ml of toluene-based liquid scintillator were mixed, and its radioactivity was determined by means of a liquid scintillation counter.
The squalene synthetase inhibitory activity was expressed in terms of the concentration inhibiting by 50% the radioactivity taken into the chloroform layer (IC50, molar concentration (M)), as shown in Table 7. Preparation of human-derived enzyme
Human hepatic carcinoma cells HepG2 (about 1×10^9 cells) obtained by incubation on a Dulbecco-modified Eagle's medium (37° C. in the presence of 5% CO2) containing 10% fetal bovine serum were suspended in 10 ml of an ice-cooled buffer solution (100 mM potassium phosphate buffer (pH 7.4), 30 mM nicotinamide and 2.5 mM MgCl2]. The cells were crashed by means of ultrasonication (for 30 seconds, twice). The sonicate thus obtained was subjected to centrifugation for 20 minutes (4° C.) with 10000×g. The supernatant layer was subjected to further centrifugation for 90 minutes (4° C.) with 105000×g. The sediment was then suspended in an ice-cooled 100 mM potassium phosphate buffer (pH 7.4), which was again subjected to centrifugation for 90 minutes (4° C.) with 105000×g. This fraction was suspended in an ice-cooled 100 mM potassium phosphate buffer solution (pH 7.4) (about 4 mg/ml protein concentration). This suspension was used as the enzyme solution.

IC50 [1] [nM] | melting point [°C] | Compound
11 | 134 to 136 | COc1cccc([C@H]2O[C@H](CC(=O)N(C)CC(=O)O)C(=O)N(CC(C)(C)C)c3ccc(Cl)cc32)c1OC [Compound 4-12]
11 | 145 to 150 | COc1cccc([C@H]2O[C@H](CC(=O)N[C@@H](CC(=O)O)C(=O)O)C(=O)N(CC(C)(C)C)c3ccc(Cl)cc32)c1OC [Compound 4-10]
15 | 160 to 162 | COc1cccc([C@H]2O[C@H](CC(=O)N[C@@H](Cc3ccc(O)cc3)C(=O)O)C(=O)N(CC(C)(C)C)c3ccc(Cl)cc32)c1OC [Compound 4-26]
18 | 228 to 230 | COc1cccc([C@H]2O[C@H](CC(=O)N3CCC(=CC(=O)O)CC3)C(=O)N(CC(C)(C)C)c3ccc(Cl)cc32)c1OC [Compound 4-18]
14 | 122 to 124 | COc1cccc([C@H]2O[C@H](CC(=O)NCC(O)CC(=O)O)C(=O)N(CC(C)(C)C)c3ccc(Cl)cc32)c1OC (some centres unmarked) [Compound 4-24]
18 | – | COc1cccc([C@H]2O[C@H](CC(=O)N3CCC(C(=O)O)CC3)C(=O)N(CC(C)(C)CO)c3ccc(Cl)cc32)c1OC [Compound 13-2]
11 | 149 to 150 | COc1cccc([C@H]2O[C@H](CC(=O)NS(=O)(=O)C(C)C)C(=O)N(CC(C)(C)C)c3ccc(Cl)cc32)c1OC [Compound 17-3]
11 | 137 to 139 | CCC(C)[C@H](NC(=O)C[C@H]1O[C@H](c2cccc(OC)c2OC)c2cc(Cl)ccc2N(CC(C)(C)C)C1=O)C(=O)O (some centres unmarked) [Compound 4-8]
11 | 165 to 167 | COc1cccc([C@H]2O[C@H](CC(=O)NCCC(=O)O)C(=O)N(CC(C)(C)C)c3ccc(Cl)cc32)c1OC [Compound 4-21]
15 | 129 to 132 | COc1cccc([C@H]2O[C@H](CC(=O)N[C@H](C(=O)O)C(C)C)C(=O)N(CC(C)(C)C)c3ccc(Cl)cc32)c1OC [Compound 4-29]
9.3 | 158 to 161 | COc1cccc([C@H]2O[C@H](CC(=O)NS(=O)(=O)c3ccccc3)C(=O)N(CC(C)(C)C)c3ccc(Cl)cc32)c1OC [Compound 17-2]
17 | 163 to 166 | COc1cccc([C@H]2O[C@H](CC(=O)N3CCC(O)(CC(=O)O)CC3)C(=O)N(CC(C)(C)C)c3ccc(Cl)cc32)c1OC [Compound 4-20]
13 | – | COc1cccc([C@H]2O[C@H](CC(=O)NS(=O)(=O)c3ccccc3C)C(=O)N(CC(C)(C)C)c3ccc(Cl)cc32)c1OC [Compound 17-1]

More lines, now with the values behind:

Compound | IC50 [1] [nM] | melting point [°C]
COc1cccc([C@H]2O[C@H](CC(=O)N3CCC(CP(=O)(O)O)CC3)C(=O)N(CC(C)(C)C)c3ccc(Cl)cc32)c1OC [Compound 23, N-[(3R,5S)-7-chloro-5-(2,3-dimethoxyphenyl)-1-neopentyl-2-oxo-1,2,3,5-tetrahydro-4,1-benzoxazepine-3-acetyl]-4-phosphonomethylpiperidine] | 12 | 174 to 175
COc1cccc([C@H]2O[C@H](Cc3nnn[nH]3)C(=O)N(CC(C)(C)C)c3ccc(Cl)cc32)c1OC [Compound 7, (3R,5S)-7-Chloro-5-(2,3-dimethoxyphenyl)-1-neopentyl-1,2,3,5-tetrahydro-3-[1H(or 3H)-tetrazol-5-yl]methyl-4,1-benzoxazepin-2-one] | 11 | 148 to 150
COc1cccc([C@H]2O[C@H](CC(=O)NCP(=O)(O)O)C(=O)N(CC(C)(C)CO)c3ccc(Cl)cc32)c1OC [Compound 27, (3R,5S)-N-phosphonomethyl-7-chloro-5-(2,3-dimethoxyphenyl)-1-(3-hydroxy-2,2-dimethylpropyl)-2-oxo-1,2,3,5-tetrahydro-4,1-benzoxazepine-3-acetamide] | 20 | –
COc1cccc([C@H]2O[C@H](Cc3nnn[nH]3)C(=O)N(CC(C)(C)CO)c3ccc(Cl)cc32)c1OC [Compound 11, (3R, 5S)-7-Chloro-5-(2,3-dimethoxyphenyl)-1-(3-hydroxy-2,2-dimethylpropyl)-1,2,3,5-tetrahydro-3-[1H (or 3H)-tetrazol-5-yl]methyl-4,1-benzoxazepin-2-one] | – | 158 to 160
COc1cccc([C@H]2O[C@H](CC(=O)N3CCC(Cc4nnn[nH]4)CC3)C(=O)N(CC(C)(C)C)c3ccc(Cl)cc32)c1OC [Compound 24, 5-[[N-[(3R,5S)-7-chloro-5-(2,3-dimethoxyphenyl)-1-neopentyl-2-oxo-1,2,3,5-tetrahydro-4,1-benzoxazepine-3-acetyl]piperidin-4-yl]methyl]1H(or 3H)-tetrazole] | 17 | 168 to 170
CCOP(=O)(CNC(=O)C[C@H]1O[C@H](c2cccc(OC)c2OC)c2cc(Cl)ccc2N(CC(C)(C)CO)C1=O)OCC | – | 138 to 140
COc1cccc([C@H]2O[C@H](CC(=O)NS(C)(=O)=O)C(=O)N(CC(C)(C)CO)c3ccc(Cl)cc32)c1OC [Compound 19, (3R,5S)-N-methylsulfonyl-7-chloro-5-(2,3-dimethoxyphenyl)-1-(3-hydroxy-2,2-dimethylpropyl)-2-oxo-1,2,3,5-tetrahydro-4,1-benzoxazepine-3-acetamide] | 32 | 221 to 223
COc1cccc([C@H]2O[C@H](Cc3nc(=O)o[nH]3)C(=O)N(CC(C)(C)C)c3ccc(Cl)cc32)c1OC [Compound 8, (3R,5S)-7-Chloro-5-(2,3-dimethoxyphenyl)-1-neopentyl-3-(2,5-dihydro-5-oxo-1,2,4-oxadiazol-3-yl) methyl-1,2,3,5-tetrahydro-4,1-benzoxazepin-2-one] | 12 | 130 to 133
COc1cccc([C@H]2O[C@H](CC(=O)N3CCC(CC(=O)NS(C)(=O)=O)CC3)C(=O)N(CC(C)(C)CO)c3ccc(Cl)cc32)c1OC [Compound 21, N-methylsulfonyl-[N-[(3R,5S)-7-chloro-5-(2,3-dimethoxyphenyl)-1-(3-hydroxy-2,2-dimethylpropyl)-2-oxo-1,2,3,5-tetrahydro-4,1-benzoxazepine-3-acetyl]piperidine]-4-acetamide] | 26 | 175 to 180
COc1cccc([C@H]2O[C@H](CC(=O)N3CCC(CCc4nnn[nH]4)CC3)C(=O)N(CC(C)(C)C)c3ccc(Cl)cc32)c1OC [Compound 25, 5-[2-[N-[(3R,5S)-7-chloro-5-(2,3-dimethoxyphenyl)-1-neopentyl-2-oxo-1,2,3,5-tetrahydro-4,1-benzoxazepine-3-acetyl]piperidin-4-yl]ethyl]1H(or 3H)-tetrazole] | 29 | 155 to 158
COc1cccc([C@H]2O[C@H](CC(=O)NS(C)(=O)=O)C(=O)N(CC(C)(C)COC(C)=O)c3ccc(Cl)cc32)c1OC [Compound 41, (3R,5S)-N-Methylsulfonyl-1-(3-acetoxy-2,2-dimethylpropyl)-7-chloro-5-(2,3-dimethoxyphenyl)-2-oxo-1,2,3,5-tetrahydro-4,1-benzoxazepine-3-acetamide] | – | 108 to 112
COc1cccc([C@H]2O[C@H](CC(=O)NS(C)(=O)=O)C(=O)N(CC(C)(CO)CO)c3ccc(Cl)cc32)c1OC [Compound 20, (3R,5S)-N-methylsulfonyl-7-chloro-5-(2,3-dimethoxyphenyl)-1-(3-hydroxy-2-hydroxymethyl-2-methylpropyl)-2-oxo-1,2,3,5-tetrahydro-4,1-benzoxazepine-3-acetamide] | 48 | –
COc1cccc([C@H]2O[C@H](Cc3nnn[nH]3)C(=O)N(CC(C)(C)C)c3ccc(Cl)cc32)c1OC [Compound 9, (3R, 5S)-7-Chloro-5-(2,3-dimethoxyphenyl)-1-neopentyl-1,2,3,5-tetrahydro-3-(tetrazol-5-yl)methyl-4,1-benzoxazepin-2-one sodium salt] | 9.5 | –
